pEC50: −log10 of the molar value. Where two headings read alike, the source gives them in different places.

Assay [1] has as its target T1, human M2 receptor (Homo sapiens, UniProt P08172).
T1 sequence (P08172 1-466): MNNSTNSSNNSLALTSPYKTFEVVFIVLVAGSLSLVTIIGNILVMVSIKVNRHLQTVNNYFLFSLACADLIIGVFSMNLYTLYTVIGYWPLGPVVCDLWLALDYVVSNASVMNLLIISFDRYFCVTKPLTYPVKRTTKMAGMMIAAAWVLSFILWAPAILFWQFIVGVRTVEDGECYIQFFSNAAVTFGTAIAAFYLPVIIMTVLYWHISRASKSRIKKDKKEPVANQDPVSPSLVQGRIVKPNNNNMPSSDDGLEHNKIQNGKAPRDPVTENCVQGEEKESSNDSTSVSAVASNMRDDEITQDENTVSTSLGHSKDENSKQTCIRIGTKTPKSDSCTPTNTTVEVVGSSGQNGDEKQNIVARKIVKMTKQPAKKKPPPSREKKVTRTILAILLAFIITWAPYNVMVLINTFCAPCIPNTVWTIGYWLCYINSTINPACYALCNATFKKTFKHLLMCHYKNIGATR
Format: cell-based. To be noted: α >1 = positive cooperativity.

For another assay, the system named is anaesthetized rats. Kind of assay: Effects on the heart rate in anaesthetized rats (B-9). Format: in vivo, rat. The conditions noted are these: i.v. infusion via jugular vein over 5 min, dose not given, in some cases means of several determinations. How it is done:
B-9. Effects of the Test Substances on the Heart Rate in Anaesthetized Rats
Male rats of the strain (WI) WU Br from the breeder Charles River are anaesthetized initially with a 4-5% isoflurane inhalation for approx. 3 min. Subsequently, anaesthesia is maintained using a 1.5% isoflurane inhalation. For this purpose, the anaesthetized animals are fixed on a heated operating plate. By means of visual inspection and between toe reflex, the depth of anaesthesia is checked.
For the application of the test substance, an i.v. route into the jugular vein is used. A caudal to cranial skin incision is then made longitudinally and both the cervical musculature and the salivary glands are severed. The right common carotid artery is exposed and blood supply is arrested both proximally and distally. Using microinstrumentation, a TIP catheter (1.2 F) is introduced into the vessel in order to measure the arterial pressure and the heart rate.
Initially, both parameters are monitored for 10 min in the basal state without substance addition. The substances to be investigated are dissolved in suitable solvent mixtures and subsequently administered at various dosages to a group of animals in each case via the jugular vein by an infusion pump over 5 min. A solvent-treated group is used as control under the same experimental conditions. The arterial blood pressure and heart rate with substance addition is determined for 20 min. The data are registered with the PowerLab system (AD instruments) and evaluated using the LabChart program (AD instruments).
The values determined in this manner for the percentage decrease in heart rate for individual working examples are given in Table 4 below (in some cases as means of a plurality of independent individual determinations): […]

Assay [2] concerns the target T1, human M2 receptor. The conditions noted are these: for Efficiency: boosting of the acetylcholine effect at EC20 acetylcholine concentration.
[3] abbreviates: shift of acetylcholine dose-response curve (Allosteric EC50 shift).
Setting [4] is: Receptor activity EC50, allosteric potency at EC20 acetylcholine, M2-GIRK1/4 reporter cells, in some cases mean of two or more determinations.
Setting [5] is: shift in the acetylcholine dose-response curve (Allosteric EC50 shift, GraphPad PRISM).
[6] abbreviates: Receptor activity EC50, M2-GIRK1/4 activation test, acetylcholine at EC20, allosteric potency, in some cases mean values from two or more determinations.
The mark [7] stands for this setting: read-out: Efficiency, boosting of the acetylcholine effect at EC20 acetylcholine concentration, M2-GIRK1/4 reporter cells.

As for `CC(NC(=O)c1cn(-c2c(F)cc(F)cc2F)c2nc(N3CCNC3=O)ccc2c1=O)C(F)(F)C(F)(F)F` (racemic) [Example 541, 4-Oxo-7-(2-oxoimidazolidin-1-yl)-N-[3,3,4,4,4-pentafluorobutan-2-yl]-1-(2,4,6-trifluorophenyl)-1,4-dihydro-1,8-naphthyridine-3-carboxamide], the “Cooperativity (alpha factor)” value at human M2 receptor [1] (setting [3]) was determined as 31. The “Reduction in heart rate (%)” value in the assay on anaesthetized rats is on record as 14%. Further, the pEC50 – broadly, the negative decadic logarithm of the EC50, by convention in mol/L – at human M2 receptor [2] (setting [4]) is 8.15. The compound also yielded an Efficiency at human M2 receptor [2] (M2-GIRK1/4 reporter cells) of 92.2%.
Consider `O=C(NC(c1ccccc1Cl)C(F)(F)F)c1cn(-c2ccc(F)cc2F)c2nc(N3C[C@@H](O)CC3=O)ccc2c1=O` (single isomer, unassigned) [Example 212], for which, at human M2 receptor [1] (setting [5]), the “Cooperativity (alpha factor)” value is 54. Also, the “Reduction in heart rate (%)” value in the assay with anaesthetized rats worked out at 11%. This compound showed a pEC50 on human M2 receptor [2] (setting [6]) of 7.39.
In the case of `O=C(NC(c1ccccc1Cl)C(F)(F)F)c1cn(-c2ccc(F)cc2F)c2nc(N3C[C@@H](O)CC3=O)ccc2c1=O` (single isomer, unassigned) [Example 213], the “Cooperativity (alpha factor)” value on human M2 receptor [1] (setting [5]) amounted to 55. Also, in the assay with anaesthetized rats, the “Reduction in heart rate (%)” value is on record as 14%. The pEC50 at human M2 receptor [2] (setting [6]) was 7.72.
As for `O=C(N[C@@H](C1CC1)C(F)(F)F)c1cn(-c2ccc(F)cc2F)c2nc(N3C[C@@H](O)CC3=O)ccc2c1=O` (single isomer, unassigned) [Example 284], the “Reduction in heart rate (%)” value with anaesthetized rats was 11%. The compound also had a negative-log EC50 (pEC50) at human M2 receptor [2] (setting [6]) of 7.21.
On to `O=C(N[C@H](C1CC1)C(F)(F)F)c1cn(-c2c(F)cccc2F)c2nc(N3C[C@@H](O)CC3=O)ccc2c1=O` (single isomer, unassigned) [Example 296], for which, at human M2 receptor [1] (setting [5]), the “Cooperativity (alpha factor)” value is reported as 49. In addition, the “Reduction in heart rate (%)” value in the assay with anaesthetized rats is given as 11%. In addition, at human M2 receptor [2] (setting [6]), the pEC50 is 7.55.
The matching figures for `O=C(N[C@@H](C1CC1)C(F)(F)F)c1cn(-c2c(F)cccc2F)c2nc(N3C[C@@H](O)CC3=O)ccc2c1=O` (single isomer, unassigned) [Example 297]: 47, 10% and 7.43.
As for `CC[C@H](NC(=O)c1cn(-c2c(F)cc(F)cc2Cl)c2nc(N3C[C@@H](O)CC3=O)ccc2c1=O)C(F)(F)F` (single isomer, unassigned) [Example 400], the “Cooperativity (alpha factor)” value at human M2 receptor [1] (setting [3]) is listed as 32. Besides, the “Reduction in heart rate (%)” value in the assay on anaesthetized rats is on record as 11%. The same compound gave a pEC50 at human M2 receptor [2] (setting [4]) of 8.30. On human M2 receptor [2] (M2-GIRK1/4 reporter cells), this compound came in with an Efficiency of 100.0%.
For the compound `CCC(NC(=O)c1cn(-c2c(F)cc(F)cc2F)c2nc(N3C[C@@H](O)CC3=O)ccc2c1=O)C(F)(F)C(F)(F)F` (single isomer, unassigned) [Example 520], the “Cooperativity (alpha factor)” value at human M2 receptor [1] (setting [3]) turned out to be 36. Further, the “Reduction in heart rate (%)” value in the assay on anaesthetized rats is listed as 15%. Further, the pEC50 on human M2 receptor [2] (setting [4]) is 8.70. Also, the Emax on human M2 receptor [2] (setting [7]) is 100%.
With `CCC(NC(=O)c1cn(-c2c(F)cc(F)cc2F)c2nc(N3C[C@@H](O)[C@H](O)C3)ccc2c1=O)C(F)(F)C(F)(F)F` (single isomer, unassigned) [Example 523], the “Cooperativity (alpha factor)” value on human M2 receptor [1] (setting [3]) is reported as 41. Also, the “Reduction in heart rate (%)” value with anaesthetized rats was found to be 15%. Further, the Emax on human M2 receptor [2] (read-out: Efficiency) was 100%.
Regarding `CC(NC(=O)c1cn(-c2c(F)cc(F)cc2F)c2nc(N3C[C@@H](O)CC3=O)ccc2c1=O)C(F)(F)C(F)(F)F` (single isomer, unassigned) [Example 530], on human M2 receptor [1] (setting [3]), the “Cooperativity (alpha factor)” value stood at 44. In the assay on anaesthetized rats, the “Reduction in heart rate (%)” value stood at 13%. The pEC50 on human M2 receptor [2] (setting [4]) was 8.22. For the same compound, the Emax on human M2 receptor [2] (setting [7]) came to 98.7%.
For `CC(NC(=O)c1cn(-c2c(F)cc(F)cc2F)c2nc(N3C[C@@H](O)[C@H](O)C3)ccc2c1=O)C(F)(F)C(F)(F)F` (single isomer, unassigned) [Example 550], at human M2 receptor [1] (setting [3]), the “Cooperativity (alpha factor)” value came out at 34. The “Reduction in heart rate (%)” value in the assay on anaesthetized rats was determined as 13%. Besides, the Emax on human M2 receptor [2] (read-out: Efficiency) turned out to be 100%.
For the compound `CC[C@@H](NC(=O)c1cn(-c2ccc(F)cc2F)c2nc(N3CC4C(C3)C4(F)F)ccc2c1=O)C(F)(F)F` (stereo partly drawn) [Example 28, 7-(6,6-Difluoro-3-azabicyclo[3.1.0]hex-3-yl)-1-(2,4-difluorophenyl)-4-oxo-N-[(2R)-1,1,1-trifluorobutan-2-yl]-1,4-dihydro-1,8-naphthyridine-3-carboxamide], at human M2 receptor [1] (setting [5]), the “Cooperativity (alpha factor)” value is reported as 25. Further, the “Reduction in heart rate (%)” value with anaesthetized rats is 9%. On human M2 receptor [2] (setting [6]), this compound gave a pEC50 of 7.64.
For `CC[C@H](NC(=O)c1cn(-c2ccc(F)cc2F)c2nc(N3C[C@@H](O)CC3=O)ccc2c1=O)C(F)(F)F` [Example 174, 1-(2,4-Difluorophenyl)-7-[(4S)-4-hydroxy-2-oxopyrrolidin-yl]-4-oxo-N-[(2S)-1,1,1-trifluorobutan-2-yl]-1,4-dihydro-1,8-naphthyridine-3-carboxamide], the “Reduction in heart rate (%)” value with anaesthetized rats is 7%. The compound further showed a pEC50 at human M2 receptor [2] (setting [6]) of 6.95. Also, the Emax on human M2 receptor [2] (read-out: Efficiency) is 98.6%.
For `CC[C@@H](NC(=O)c1cn(-c2ccc(F)cc2F)c2nc(N3CC[C@H](F)C3)ccc2c1=O)C(F)(F)F` [Example 189, 1-(2,4-Difluorophenyl)-7-[(3S)-3-fluoropyrrolidin-1-yl]-4-oxo-N-[(2R)-1,1,1-trifluorobutan-2-yl]-1,4-dihydro-1,8-naphthyridine-3-carboxamide], on human M2 receptor [1] (setting [5]), the “Cooperativity (alpha factor)” value is 24. Besides, the “Reduction in heart rate (%)” value with anaesthetized rats was 7%. Also, on human M2 receptor [2] (setting [6]), the pEC50 was 7.64.
Taken in the same sequence, the figures for `O=C(Nc1c(Cl)cccc1Cl)c1cn(-c2ccc(F)cc2F)c2nc(N3C[C@@H](O)CC3=O)ccc2c1=O` [Example 201, N-(2,6-Dichlorophenyl)-1-(2,4-difluorophenyl)-7-[(4S)-4-hydroxy-2-oxopyrrolidin-1-yl]-4-oxo-1,4-dihydro-1,8-naphthyridine-3-carboxamide] were 39, 6% and 7.41.
On to `CC[C@@H](NC(=O)c1cn(-c2ccc(F)cc2F)c2nc(N3C[C@@H](O)[C@H](O)C3)ccc2c1=O)C(F)(F)F` [Example 646, 1-(2,4-Difluorophenyl)-7-[(3R,4R)-3,4-dihydroxypyrrolidin-1-yl]-4-oxo-N-[(2R)-1,1,1-trifluorobutan-2-yl]-1,4-dihydro-1,8-naphthyridine-3-carboxamide], for which, at human M2 receptor [1] (setting [3]), the “Cooperativity (alpha factor)” value was determined as 30. The same compound showed a pEC50 on human M2 receptor [2] (setting [4]) of 7.13. The Emax at human M2 receptor [2] (setting [7]) was determined as 100%.
As for `CC[C@@H](NC(=O)c1cn(-c2c(F)cccc2F)c2nc(N3C[C@@H](O)[C@@H](O)C3)ccc2c1=O)C(F)(F)F` [Example 648, 1-(2,6-Difluorophenyl)-7-[(3R,4S)-3,4-dihydroxypyrrolidin-1-yl]-4-oxo-N-[(2R)-1,1,1-trifluorobutan-2-yl]-1,4-dihydro-1,8-naphthyridine-3-carboxamide], at human M2 receptor [1] (setting [3]), the “Cooperativity (alpha factor)” value was determined as 49. Also, the pEC50 at human M2 receptor [2] (setting [4]) is 7.09. Further, the Emax on human M2 receptor [2] (setting [7]) worked out at 96.5%.
Consider `COC(=O)[C@@H]1CN(c2ccc3c(=O)c(C(=O)N[C@@H](C4CC4)C(F)(F)F)cn(-c4c(F)cc(F)cc4F)c3n2)C(=O)O1` [Example 666, Methyl (5S)-3-[6-{[(1S)-1-cyclopropyl-2,2,2-trifluoroethyl]carbamoyl}-5-oxo-8-(2,4,6-trifluorophenyl)-5,8-dihydro-1,8-naphthyridin-2-yl]-2-oxo-1,3-oxazolidine-5-carboxylate], for which, on human M2 receptor [1] (setting [3]), the “Cooperativity (alpha factor)” value is recorded as 60. Also, the pEC50 on human M2 receptor [2] (setting [4]) was 7.66. Besides, the Emax on human M2 receptor [2] (setting [7]) came out at 100%.
